Where a SMILES comes first, the peptide text is derived from it. Bridges are numbered along the chain shown (N, C = ends). Roman numbers before positions name the chains, in order. [ ]: non-standard residue; d: D form. Tle = CC(C)(C)[C@H](N)C(=O)O; dDab = NCC[C@@H](N)C(=O)O; Nle = CCCC[C@H](N)C(=O)O; Orn = NCCC[C@H](N)C(=O)O; Dab = NCC[C@H](N)C(=O)O; dAze = O=C(O)[C@H]1CCN1; Dap = NC[C@H](N)C(=O)O
Assays:
Assay type in all cases: cell-based
[1] = system: Pseudomonas aeruginosa ATCC 27853; conditions: ATCC 27853
Summary of the method: (§1)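 CLSI broth microdilution; MH-II (cation-adjusted) + 0.002% P-80; ~10^6 CFU/mL inoculum; peptide two-fold serial dilutions; 18-20 h, 35° C; MIC = no visible growth, μg/mL.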

Escherichia coli 926415 = conditions: 926415
[2] = system: Acinetobacter baumannii DSM 30008; conditions: DSM 30008
Summary of the method: as §1

[3] = system: Acinetobacter baumannii 872842; conditions: 872842
[4] = system: Escherichia coli ATCC 25922; conditions: ATCC 25922
Summary of the method: as §1

[5] = system: Klebsiella pneumoniae 968733; conditions: 968733
[6] = system: Klebsiella pneumoniae SSI #3010; conditions: SSI #3010
Summary of the method: as §1

[7] = system: human red blood cells (hRBC); test: Hemolysis of human red blood cells; conditions: red cells of human, 1 h
Summary of the method: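 hRBC washed 3× PBS; 20% v/v, ~0.9×10^9 cells/mL final. Peptide 100 μg/mL, 1 h, 37° C., 300 rpm. Spin, supernatant diluted 8×, OD540. 0% = PBS + 0.001% acetic acid; 100% = 2.5% Triton X-100. % hemolysis = OD540 peptide/OD540 full lysis × 100.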

SMILES | Pseudomonas aeruginosa ATCC 27853 MIC [1] [µg/mL] | Escherichia coli 926415 MIC (Escherichia coli 926415) [µg/mL] | Acinetobacter baumannii DSM 30008 MIC [2] [µg/mL] | Acinetobacter baumannii 872842 MIC [3] [µg/mL] | Escherichia coli ATCC 25922 MIC [4] [µg/mL] | Klebsiella pneumoniae 968733 MIC [5] [µg/mL] | Klebsiella pneumoniae SSI #3010 MIC [6] [µg/mL] | Hemolysis at 100 μg/mL [7]; 100 [%] | Hemolysis at 100 μg/mL ([7]; 100 μg/mL) [%]
CCCC[C@@H]1NC(=O)[C@@H]2CCCN2C(=O)[C@H]2CCCN2C(=O)[C@H](CO)NC(=O)[C@H](C)NC(=O)[C@H](C(C)(C)C)NC(=O)[C@H](CCN)NC(=O)[C@H](Cc2c[nH]c3ccccc23)NC(=O)[C@H](CCN)NC(=O)[C@H](CCC(=O)N[C@@H](CCN)C(=O)N[C@H](CCN)C(=O)N[C@H]2CCNC(=O)[C@H]([C@@H](C)O)NC(=O)[C@H](CCN)NC(=O)[C@H](CCN)NC(=O)[C@H](CC(C)C)NC(=O)[C@@H](CC(C)C)NC(=O)[C@H](CCN)NC2=O)NC(=O)[C@H](CCCN)NC(=O)[C@H](CCN)NC(=O)[C@H](Cc2ccc(O)cc2)NC(=O)[C@H](CO)NC1=O [Ex. 78] (I: cyclo([Nle]SY[Dab][Orn]E[Dab]W[Dab][Tle]AS[dP]P) / II: [Dab][dDab][Dab][Dab][dL]L[Dab][Dab]T; amide I:6-II:N; lactam II:3-II:C) | 0.25 | 0.5 | 0.5 | 1 | 0.5 | 0.5 | 0.5 | 1 | –
CC(C)C[C@@H]1NC(=O)[C@@H](CC(C)C)NC(=O)[C@H](CCN)NC(=O)[C@@H](NC(=O)[C@H](CCN)NC(=O)[C@H](CCN)NC(=O)[C@@H]2CCC(=O)N[C@@H](CCN)C(=O)N[C@@H](Cc3c[nH]c4ccccc34)C(=O)N[C@H]3CSSC[C@H](NC(=O)[C@H](Cc4ccc(O)cc4)NC(=O)[C@H](CO)NC(=O)[C@H](CC(C)C)NC(=O)[C@@H]4CCCN4C(=O)[C@H]4CCCN4C(=O)[C@H](CO)NC(=O)[C@H](C)NC(=O)[C@H](C(C)C)NC3=O)C(=O)NCC(=O)N2)CCNC(=O)[C@H]([C@@H](C)O)NC(=O)[C@H](CCN)NC(=O)[C@H](CCN)NC1=O [Ex. 79] ([Dab]WCVAS[dP]PLSYCGE[Dab][Dab][Dab][Dab][dL]L[Dab][Dab]T; disulfide 3-12; lactam 17-C, N-14) | 0.5 | 2 | 0.5 | 2 | 0.5 | 8 | 1 | – | <1
CC(C)C[C@@H]1NC(=O)[C@@H](Cc2ccccc2)NC(=O)[C@H](CCN)NC(=O)[C@@H](NC(=O)[C@H](CCN)NC(=O)[C@@H](NC(=O)[C@H](CCN)NC(=O)CC[C@@H]2NC(=O)[C@H](CCN)NC(=O)[C@H](Cc3ccc(O)cc3)NC(=O)[C@H]([C@@H](C)O)NC(=O)[C@H](C(C)C)NC(=O)[C@@H]3CCCN3C(=O)[C@H]3CCN3C(=O)[C@H](CO)NC(=O)[C@H](C)NC(=O)[C@H](C(C)(C)C)NC(=O)[C@H](CCN)NC(=O)[C@H](Cc3c[nH]c4ccccc34)NC(=O)[C@H](CCN)NC(=O)[C@@H](CCN)NC2=O)[C@@H](C)O)CCNC(=O)[C@H]([C@@H](C)O)NC(=O)[C@H](CCN)NC(=O)[C@H](CCN)NC1=O [Ex. 80] (I: cyclo(W[Dab][Tle]AS[dAze]PVTY[Dab]E[dDab][Dab]) / II: [Dab]T[Dab][Dab][Dab][dF]L[Dab][Dab]T; amide I:12-II:N; lactam II:4-II:C) | 0.25 | 0.25 | 0.5 | 0.5 | 0.25 | 1 | 0.25 | <1 | –
CCCC[C@@H]1NC(=O)[C@@H]2CCCN2C(=O)[C@H]2CCCN2C(=O)[C@H](CO)NC(=O)[C@H](C)NC(=O)[C@H](C(C)(C)C)NC(=O)[C@H](CCN)NC(=O)[C@H](Cc2c[nH]c3ccccc23)NC(=O)[C@H](CCN)NC(=O)[C@@H](CCN)NC(=O)[C@H](CCC(=O)N[C@@H](CCN)C(=O)N[C@@H](C(=O)N[C@@H](CCN)C(=O)N[C@H]2CCNC(=O)[C@H]([C@@H](C)O)NC(=O)[C@H](CCN)NC(=O)[C@H](CCN)NC(=O)[C@H](CC(C)C)NC(=O)[C@@H](Cc3ccccc3)NC(=O)[C@H](CCN)NC2=O)[C@H](C)O)NC(=O)[C@H](CCN)NC(=O)[C@H](Cc2ccc(O)cc2)NC(=O)[C@H](CO)NC1=O [Ex. 81] (I: cyclo(W[Dab][Tle]AS[dP]P[Nle]SY[Dab]E[dDab][Dab]) / II: [Dab][dT][Dab][Dab][Dab][dF]L[Dab][Dab]T; amide I:12-II:N; lactam II:4-II:C) | 0.5 | 0.5 | 1 | 2 | 0.5 | 2 | 1 | 1 | –
CC(C)C[C@@H]1NC(=O)[C@@H](CC(C)C)NC(=O)[C@H](CCN)NC(=O)[C@@H](NC(=O)[C@H](CCN)NC(=O)[C@@H](NC(=O)[C@H](CCN)NC(=O)CC[C@@H]2NC(=O)[C@H](CCN)NC(=O)[C@H](Cc3ccc(O)cc3)NC(=O)[C@H]([C@@H](C)O)NC(=O)[C@H](C(C)C)NC(=O)[C@@H]3CCCN3C(=O)[C@H]3CCN3C(=O)[C@H](CO)NC(=O)[C@H](C)NC(=O)[C@H](C(C)(C)C)NC(=O)[C@H](CCN)NC(=O)[C@H](Cc3c[nH]c4ccccc34)NC(=O)[C@H](CCN)NC(=O)[C@@H](CCN)NC2=O)[C@@H](C)O)CCNC(=O)[C@H]([C@@H](C)O)NC(=O)[C@H](CCN)NC(=O)[C@H](CCN)NC1=O [Ex. 82] (I: cyclo(AS[dAze]PVTY[Dab]E[dDab][Dab]W[Dab][Tle]) / II: [Dab]T[Dab][Dab][Dab][dL]L[Dab][Dab]T; amide I:9-II:N; lactam II:4-II:C) | 0.5 | 0.5 | 1 | 0.5 | 0.5 | 0.5 | 0.5 | <1 | –
CCCC[C@@H]1NC(=O)[C@@H]2CCCN2C(=O)[C@H]2CCCN2C(=O)[C@H](CO)NC(=O)[C@H](CO)NC(=O)[C@H](C(C)(C)C)NC(=O)[C@H](CCN)NC(=O)[C@H](Cc2c[nH]c3ccccc23)NC(=O)[C@H](CCN)NC(=O)[C@@H](CCN)NC(=O)[C@H](CCC(=O)N[C@@H](CCN)C(=O)N[C@H](C(=O)N[C@@H](CCN)C(=O)N[C@H]2CCNC(=O)[C@H]([C@@H](C)O)NC(=O)[C@H](CCN)NC(=O)[C@H](CCN)NC(=O)[C@H](CC(C)C)NC(=O)[C@@H](CC(C)C)NC(=O)[C@H](CCN)NC2=O)[C@@H](C)O)NC(=O)[C@H](CCN)NC(=O)[C@H](Cc2ccc(O)cc2)NC(=O)[C@H](CN)NC1=O [Ex. 83] (I: cyclo([Nle][Dap]Y[Dab]E[dDab][Dab]W[Dab][Tle]SS[dP]P) / II: [Dab]T[Dab][Dab][Dab][dL]L[Dab][Dab]T; amide I:5-II:N; lactam II:4-II:C) | 1 | 1 | 1 | 1 | 2 | 4 | 2 | 1 | –
CCCC[C@@H]1NC(=O)[C@@H]2CCCN2C(=O)[C@H]2CCCN2C(=O)[C@H](CO)NC(=O)[C@H](CN)NC(=O)[C@H](C(C)(C)C)NC(=O)[C@H](CCN)NC(=O)[C@H](Cc2c[nH]c3ccccc23)NC(=O)[C@H](CCN)NC(=O)[C@@H](CCN)NC(=O)[C@H](CCC(=O)N[C@@H](CCN)C(=O)N[C@H](C(=O)N[C@@H](CCN)C(=O)N[C@H]2CCNC(=O)[C@H]([C@@H](C)O)NC(=O)[C@H](CCN)NC(=O)[C@H](CCN)NC(=O)[C@H](CC(C)C)NC(=O)[C@@H](CC(C)C)NC(=O)[C@H](CCN)NC2=O)[C@@H](C)O)NC(=O)[C@H](CCN)NC(=O)[C@H](Cc2ccc(O)cc2)NC(=O)[C@H](CO)NC1=O [Ex. 84] (I: cyclo([Nle]SY[Dab]E[dDab][Dab]W[Dab][Tle][Dap]S[dP]P) / II: [Dab]T[Dab][Dab][Dab][dL]L[Dab][Dab]T; amide I:5-II:N; lactam II:4-II:C) | 2 | 1 | 1 | 2 | 1 | 2 | 2 | 1 | –
